Results reported in patent US20230120597A1, “CO-AGONISTS AT GLP-1 AND GIP RECEPTORS SUITABLE FOR ORAL DELIVERY” (Novo Nordisk A/S, priority 2020, published 2023).
Where two headings read alike, the source gives them in different places. Starred links: 1 amine or outer side, 2 acyl side, 3 side chain; linkers in the order of their positions; H or OH if unused. Non-standard residues stand in square brackets, D forms with d. Residues, ends and D or L forms follow the SMILES beside them. Groups on a side chain read outwards from the residue. *: point of attachment. C18 diacid = O=C(O)CCCCCCCCCCCCCCCCC(=O)*; γGlu = O=C(O)[C@H](CCC(=O)[*:2])N[*:1]; εLys = N[C@@H](CCCCN[*:1])C(=O)[*:2]; Aib = CC(C)(N)C(=O)O

How the values were obtained:
[1] = target: T1, human GIP receptor (Homo sapiens, UniProt P48546); assay: In vitro functional potency, CRE luciferase reporter gene assay, whole BHK cells expressing hGIPR; type: cell-based; conditions: BHK CRE luc2P hGIPR cells
T1 construct: expressed in transfected cells; host or cells: BHK (parent line BHKTS13), clone BHK CRE luc2P hGIPR
T1 sequence (P48546 22-466): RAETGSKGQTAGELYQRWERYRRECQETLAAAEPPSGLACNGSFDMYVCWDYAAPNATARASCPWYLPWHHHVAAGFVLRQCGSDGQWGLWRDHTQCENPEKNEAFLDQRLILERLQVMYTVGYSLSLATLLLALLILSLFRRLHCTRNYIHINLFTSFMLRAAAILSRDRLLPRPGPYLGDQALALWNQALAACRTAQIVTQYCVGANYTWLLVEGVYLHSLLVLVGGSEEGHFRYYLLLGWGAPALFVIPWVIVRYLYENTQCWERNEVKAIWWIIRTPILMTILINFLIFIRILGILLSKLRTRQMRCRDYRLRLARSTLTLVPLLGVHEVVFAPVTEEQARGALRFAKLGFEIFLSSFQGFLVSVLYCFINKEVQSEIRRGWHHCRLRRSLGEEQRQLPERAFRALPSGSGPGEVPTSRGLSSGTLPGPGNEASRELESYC
Experimental: (§1) The in vitro functional potency is the measure of target receptor activation in a whole cell assay.
(§2) In vitro functional potency was determined by measuring the response of the target receptor in a reporter gene assay in individual cell lines. […] When the respective receptor is activated, it results in the production of cAMP, which in turn results in expression of the luciferase protein. When assay incubation is completed, luciferase substrate (luciferin) is added resulting in the enzymatic conversion of luciferin to oxyluciferin and producing bioluminescence. The luminescence is measured as the readout for the assay.
(§3) The cells lines used in these assays were BHK cells with BHKTS13 as a parent cell line. The cell lines were derived from a clone containing the CRE luciferase element and were established by further transfection with the respective human receptor to obtain the relevant cell line: BHK CRE luc2P hGLP-1R or BHK CRE luc2P hGIPR. The cells were cultured at 37° C. with 5% CO2 in Cell Culture Medium. They were aliquoted and stored in liquid nitrogen. The cells were kept in continuous culture and were seeded out the day before each assay.
(§4) GLP-1R Cell Culture Medium consisted of DMEM medium with 10% FBS, 500 μg/mL G418, and 300 μg/mL hygromycin. GIPR Cell Culture Medium consisted of DMEM medium with 10% FBS, 400 μg/mL G418, and 300 μg/mL hygromycin. Assay Buffer consisted of DMEM w/o phenol red, 10 mM Hepes, 1× Glutamax. 1% ovalbumin, and 0.1% Pluronic F-68 with the addition of HSA at twice the final assay concentration.
(§5) Procedure • 1) Cells were plated at 5000 cells/well and incubated overnight in the assay plate. • 2) Cells were washed once in DPBS. • 3) Stocks of the test compounds and reference compounds in concentrations ranging from […] were diluted 1:150 in Assay Buffer. Compounds were then diluted 1:10 in column 1 of a 96 deep well dilution plate and then carried across the row creating a 3.5 fold, 12 point dilution curve. • 4) Assay Buffer (50 μl aliquot) with or without HSA was added to each well in the assay plate. • 5) A 50 μl aliquot of compound or blank was transferred from the dilution plate to the assay plate containing the Assay Buffer with or without HSA. • 6) The assay plate was incubated for 3 h in a 5% CO2 incubator at 37° C. • 7) The cells were washed once with DPBS. • 8) A 100 μl aliquot of DPBS was added to each well of the assay plate. • 9) A 100 μl aliquot of steadylite plus reagent (light sensitive) was added to each well of the assay plate. • 10) Each assay plate was covered with aluminum foil to protect it from light and shaken at 250 RPM for 30 min at room temperature. • 11) Each assay plate was read in a microtiter plate reader.
(§6) The data from the microtiter plate reader was first regressed in an Excel in order to calculate the x-axis, log scale concentrations based on the individual test compound's stock concentration and the dilutions of the assay. […] The software performs a non-linear regression (log(agonist) vs response). A minimum of two replicates was measured for each sample. The reported values are averages of the replicates.

[2] = target: T2, human GLP-1 receptor (Homo sapiens, UniProt P43220); assay: In vitro functional potency, CRE luciferase reporter gene assay, whole BHK cells expressing hGLP-1R; type: cell-based; conditions: BHK CRE luc2P hGLP-1R cells
T2 construct: expressed in transfected cells; host or cells: BHK (parent line BHKTS13), clone BHK CRE luc2P hGLP-1R
Experimental: as §1, §2, §3, §4, §5, §6

[3] = 0% HSA, read-out: hGIPR, CRE Luc 0% HSA EC50
[4] = hGIPR, CRE Luc 1% HSA EC50, 1% HSA
[5] = 0% HSA, read-out: hGLP-1R, CRE Luc 0% HSA EC50
[6] = hGLP-1R, CRE Luc 1% HSA EC50, 1% HSA

T2 sequence (P43220 24-463): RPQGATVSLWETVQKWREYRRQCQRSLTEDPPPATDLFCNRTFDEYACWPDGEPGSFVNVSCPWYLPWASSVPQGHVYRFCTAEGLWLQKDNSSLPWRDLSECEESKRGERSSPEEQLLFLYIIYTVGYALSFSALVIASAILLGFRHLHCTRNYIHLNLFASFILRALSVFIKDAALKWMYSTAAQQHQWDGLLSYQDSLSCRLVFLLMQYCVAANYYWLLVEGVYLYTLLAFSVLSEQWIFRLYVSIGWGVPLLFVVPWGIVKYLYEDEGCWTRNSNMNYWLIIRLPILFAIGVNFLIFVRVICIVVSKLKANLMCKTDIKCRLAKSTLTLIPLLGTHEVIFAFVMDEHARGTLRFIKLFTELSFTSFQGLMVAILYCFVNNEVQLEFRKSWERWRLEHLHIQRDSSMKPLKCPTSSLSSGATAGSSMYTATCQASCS

Row | SMILES | EC50 [1, 3] | EC50 [1, 4] | EC50 [2, 5] | EC50 [2, 6]
1 | CC[C@H](C)[C@H](NC(=O)[C@H](Cc1ccccc1)NC(=O)[C@H](CCC(=O)O)NC(=O)[C@H](CCCNC(=N)N)NC(=O)[C@H](C)NC(=O)[C@H](C)NC(=O)[C@H](CCC(N)=O)NC(=O)[C@H](CCCCNC(=O)[C@@H](N)CCCCNC(=O)[C@@H](N)CCCCNC(=O)CC[C@H](NC(=O)CCCCCCCCCCCCCCCCC(=O)O)C(=O)O)NC(=O)[C@H](CCC(=O)O)NC(=O)[C@H](CC(C)C)NC(=O)[C@H](Cc1ccc(O)cc1)NC(=O)[C@@H](NC(=O)[C@H](CO)NC(=O)[C@H](Cc1ccc(O)cc1)NC(=O)[C@H](CC(=O)O)NC(=O)[C@H](CO)NC(=O)[C@@H](NC(=O)[C@H](Cc1ccccc1)NC(=O)[C@@H](NC(=O)CNC(=O)[C@H](CCC(=O)O)NC(=O)C(C)(C)NC(=O)[C@@H](N)Cc1ccc(O)cc1)[C@@H](C)O)[C@@H](C)O)[C@@H](C)CC)C(=O)N[C@@H](CCC(=O)O)C(=O)N[C@@H](Cc1c[nH]c2ccccc12)C(=O)N[C@@H](CC(C)C)C(=O)N[C@@H](CC(C)C)C(=O)N[C@@H](CCCNC(=N)N)C(=O)NCC(=O)NCC(=O)N1CCC[C@H]1C(=O)N[C@@H](CO)C(=O)N[C@@H](CO)C(=O)NCC(=O)N[C@@H](C)C(=O)N1CCC[C@H]1C(=O)N1CCC[C@H]1C(=O)N1CCC[C@H]1C(=O)N[C@@H](CO)C(=O)O [Compound No. 12] (H-Y[Aib]EGTFTSDYSIYLEK([εLys-εLys-γGlu-C18 diacid])QAAREFIEWLLRGGPSSGAPPPS-OH; N-terminus assumed) | 9 pM | 71.5 pM | 4 pM | 54.4 pM
2 | CC[C@H](C)[C@H](NC(=O)[C@H](CO)NC(=O)[C@H](Cc1ccc(O)cc1)NC(=O)[C@H](CC(=O)O)NC(=O)[C@H](CO)NC(=O)[C@@H](NC(=O)[C@H](Cc1ccccc1)NC(=O)[C@@H](NC(=O)CNC(=O)[C@H](CCC(=O)O)NC(=O)C(C)(C)NC(=O)[C@@H](N)Cc1ccc(O)cc1)[C@@H](C)O)[C@@H](C)O)C(=O)N[C@@H](C)C(=O)N[C@@H](CC(C)C)C(=O)N[C@@H](CCC(=O)O)C(=O)N[C@@H](CCCCNC(=O)[C@@H](N)CCCCNC(=O)[C@@H](N)CCCCNC(=O)CC[C@H](NC(=O)CCCCCCCCCCCCCCCCC(=O)O)C(=O)O)C(=O)N[C@@H](CCC(N)=O)C(=O)N[C@@H](C)C(=O)N[C@@H](C)C(=O)N[C@@H](CCCNC(=N)N)C(=O)N[C@@H](CCC(=O)O)C(=O)N[C@@H](Cc1ccccc1)C(=O)N[C@H](C(=O)N[C@@H](CC(N)=O)C(=O)N[C@@H](Cc1c[nH]c2ccccc12)C(=O)N[C@@H](CC(C)C)C(=O)N[C@@H](CC(C)C)C(=O)N[C@@H](C)C(=O)NCC(=O)NCC(=O)N1CCC[C@H]1C(=O)N[C@@H](CO)C(=O)N[C@@H](CO)C(=O)NCC(=O)N[C@@H](C)C(=O)N1CCC[C@H]1C(=O)N1CCC[C@H]1C(=O)N1CCC[C@H]1C(=O)N[C@@H](CO)C(=O)O)[C@@H](C)CC [Compound No. 14] (H-Y[Aib]EGTFTSDYSIALEK([εLys-εLys-γGlu-C18 diacid])QAAREFINWLLAGGPSSGAPPPS-OH) | 11.6 pM | 580 pM | 5.4 pM | 306 pM
